# Measurements: ChEMBL document CHEMBL1201862, “PubChem BioAssay data set” (2004)
# Several values for one entry are separate records, joined by “and”; a condition that tells them apart may be missing. Equal entries are not always repeated. Activity calls are given as the source filed them.
# Tests used:
# Cytochrome P450 3A4 = Cytochrome P450 3A4 (Homo sapiens, UniProt P08684); details: Potency;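 further: confirmatory qHTS run detecting inhibitors and substrates of CYP3A4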
# [1] = Shn3 3'UTR reporter inhibitors, dose response, cell-based, Clone20 osteoblasts, firefly luciferase, cherry-picked (AID 624132); assay type: functional;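 further: firefly luciferase luminescence from reporter carrying the Shn3 3'UTR in osteoblasts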
# [2] = HepG2 cell cytotoxicity, dose response, cytotoxicity control for Shn3 inhibitor project, CellTiter-Glo, cherry-picked (AID 624134); assay type: functional, cell-based
# [3] = target: T1, Heat shock factor protein 1 (Mus musculus, UniProt P38532); experiment: HSF1 potentiators in luciferase reporter cells, confirmation, cell-based, NIH3T3, luminescence, dose retest (AID 435004); assay type: functional;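 further: stress induced by proteasome inhibitor MG132 added 30 min after compound; luciferase reporter driven by HSF1 response element in NIH3T3 cells; actives raise luminescence as potentiators of the MG132 stress response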
# T1 sequence (P38532 whole entry): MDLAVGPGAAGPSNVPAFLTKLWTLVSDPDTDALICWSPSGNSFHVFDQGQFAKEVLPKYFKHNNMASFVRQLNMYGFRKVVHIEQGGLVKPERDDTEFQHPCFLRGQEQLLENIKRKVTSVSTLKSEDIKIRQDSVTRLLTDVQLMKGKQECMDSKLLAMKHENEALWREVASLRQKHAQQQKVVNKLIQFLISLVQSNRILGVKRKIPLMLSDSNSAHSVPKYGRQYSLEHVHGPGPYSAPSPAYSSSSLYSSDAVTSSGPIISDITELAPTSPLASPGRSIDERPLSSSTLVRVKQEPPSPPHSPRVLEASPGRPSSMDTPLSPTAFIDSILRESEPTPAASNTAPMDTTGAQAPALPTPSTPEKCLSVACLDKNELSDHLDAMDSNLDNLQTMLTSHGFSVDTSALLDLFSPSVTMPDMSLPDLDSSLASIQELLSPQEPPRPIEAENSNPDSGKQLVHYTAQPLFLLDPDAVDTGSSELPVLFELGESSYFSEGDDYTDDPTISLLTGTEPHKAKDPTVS
# [4] = control 3'UTR Renilla luciferase suppression, dose response, counter-screen for Shn3 inhibitor project, cell-based, Clone20-Shn3RL, cherry-picked (AID 624133); assay type: functional
# [5] = cytotoxicity in KRAS-transformed pancreatic duct cells, primary screen, cell-based, fluorescence, HTS (AID 431); assay type: functional; details: Homo sapiens;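 further: cell line used: HPDE-C7K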
# [6] = cytotoxicity in HPDE-C7 cells, cell-based, fluorescence, HTS (AID 430); assay type: functional; details: Homo sapiens
# [7] = C. albicans growth with fluconazole, confirmation, fluorescence, retest (AID 2467); assay type: functional, cell-based
# [8] = NIH-3T3 fibroblast cytotoxicity, dose response, cytotoxicity control, cell-based, fluorescence, Alamar Blue, secondary assay (AID 2327); assay type: functional;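 further: NIH-3T3 mouse fibroblasts cultured with fluconazole at 8 µg/mL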
# [9] = target: Induced myeloid leukemia cell differentiation protein Mcl-1 (Homo sapiens, UniProt Q07820); assay type: functional
# Chain of Induced myeloid leukemia cell differentiation protein Mcl-1 (Q07820 whole entry): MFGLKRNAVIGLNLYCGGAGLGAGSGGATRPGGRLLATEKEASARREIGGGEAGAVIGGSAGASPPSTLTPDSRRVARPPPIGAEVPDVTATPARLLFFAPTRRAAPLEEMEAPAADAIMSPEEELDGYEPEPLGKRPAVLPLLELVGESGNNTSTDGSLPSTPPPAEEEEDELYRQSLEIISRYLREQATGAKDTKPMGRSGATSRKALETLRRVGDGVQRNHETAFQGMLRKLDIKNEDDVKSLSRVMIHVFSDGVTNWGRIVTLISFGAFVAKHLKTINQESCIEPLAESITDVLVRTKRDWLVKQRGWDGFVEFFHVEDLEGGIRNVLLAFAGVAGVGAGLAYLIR
# Leucine aminopeptidase = target: T2, Leucine aminopeptidase (Plasmodium falciparum 3D7, UniProt Q8IL11); experiment: P. falciparum M17LAP inhibitors, primary screen, biochemical, fluorogenic H-Leu-NHMec substrate, 1536-well (AID 1619); assay type: functional
# T2 sequence (Q8IL11 whole entry): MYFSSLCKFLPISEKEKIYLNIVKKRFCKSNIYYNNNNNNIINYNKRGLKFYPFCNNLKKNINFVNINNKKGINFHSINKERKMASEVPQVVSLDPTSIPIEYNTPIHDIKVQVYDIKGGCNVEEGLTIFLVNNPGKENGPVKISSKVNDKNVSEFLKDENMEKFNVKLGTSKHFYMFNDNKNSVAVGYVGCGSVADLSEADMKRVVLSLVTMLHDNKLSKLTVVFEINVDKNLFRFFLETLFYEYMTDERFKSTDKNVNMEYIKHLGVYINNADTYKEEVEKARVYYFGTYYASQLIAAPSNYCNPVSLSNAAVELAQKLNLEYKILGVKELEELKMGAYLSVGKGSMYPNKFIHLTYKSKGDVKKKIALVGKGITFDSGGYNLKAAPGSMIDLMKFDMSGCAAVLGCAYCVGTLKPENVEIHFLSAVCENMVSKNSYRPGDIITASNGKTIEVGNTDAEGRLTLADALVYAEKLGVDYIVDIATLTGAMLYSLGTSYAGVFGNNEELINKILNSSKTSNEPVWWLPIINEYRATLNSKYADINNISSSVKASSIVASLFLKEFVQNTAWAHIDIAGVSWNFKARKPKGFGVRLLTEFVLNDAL
# [10] = inhibitors of intracellular T. cruzi replication, confirmation, NIH3T3 host cells, beta-gal luminescence (AID 2044); assay type: functional, cell-based;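 further: intracellular parasites grown in NIH/3T3 mouse fibroblasts as host cells; luminescent beta-galactosidase reporter signal from transgenic T. cruzi replicating inside host cells; inhibitors lower the luminescence signal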
# [11] = cytotoxicity toward NIH3T3 fibroblasts, dose response, counter-screen, cell-based, ATP luminescence, mouse fibroblasts (AID 2010); assay type: functional;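 further: cells exposed to compound for about 90 hours before reading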
# [12] = microbe, parasite or virus in culture; assay type: functional; details: Mycobacterium tuberculosis
# Streptococcus = experiment: Group A Streptococcus viability loss, dose response, counter-screen for streptokinase expression inhibitor project, luminescence, BacTiterGlo (AID 1915); assay type: functional, organism-based;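 further: potency for reduction of bacterial viability or growth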
# [13] = tested on: Streptococcus sp. 'group A'; experiment: growth inhibition of control SK(-) GAS strain, dose response, counter-screen for streptokinase expression inhibitor project, luminescence, kanamycin, BacTiterGlo, confirmation (AID 1900); assay type: functional, organism-based
# [14] = Luminescence Cell-Based Dose Retest to Confirm Inhibitors of Cancer Stem Cells. [Related pubchem assays (depositor defined):AID2717, AID2721]; assay type: functional; details: Homo sapiens
# Prothrombin = Prothrombin (Homo sapiens, UniProt P00734); experiment: Thrombin 1536 HTS Dose Response Confirmation. [Related pubchem assays: 1046 (Thrombin 1536 HTS; hits were confirmed in this assay)]; assay type: functional
# [15] = growth suppression of PTEN-null colon cells, dose response, cell-based, HCT116 PTEN knockout (AID 1047); assay type: functional;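 further: HCT116 colon tumor cells with PTEN knocked out; cells exposed to compound for 60 hours before readout; potency for loss of cell viability measured by luminescence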
# [16] = growth suppression of beta-catenin-knockout colon cells, dose response, cell-based, HCT116, human colon tumor (AID 1045); assay type: functional;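 further: HCT116 colon tumor cells with beta catenin knocked out; cells exposed to compound for 60 hours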
# [17] = target: T3, Replicative DNA helicase DnaB (Mycobacterium tuberculosis, UniProt P9WMR3); experiment: DnaB intein splicing inhibitors, dose response, biochemical, cell-free fluorescence (AID 449749); assay type: functional
# T3 sequence (P9WMR3 whole entry): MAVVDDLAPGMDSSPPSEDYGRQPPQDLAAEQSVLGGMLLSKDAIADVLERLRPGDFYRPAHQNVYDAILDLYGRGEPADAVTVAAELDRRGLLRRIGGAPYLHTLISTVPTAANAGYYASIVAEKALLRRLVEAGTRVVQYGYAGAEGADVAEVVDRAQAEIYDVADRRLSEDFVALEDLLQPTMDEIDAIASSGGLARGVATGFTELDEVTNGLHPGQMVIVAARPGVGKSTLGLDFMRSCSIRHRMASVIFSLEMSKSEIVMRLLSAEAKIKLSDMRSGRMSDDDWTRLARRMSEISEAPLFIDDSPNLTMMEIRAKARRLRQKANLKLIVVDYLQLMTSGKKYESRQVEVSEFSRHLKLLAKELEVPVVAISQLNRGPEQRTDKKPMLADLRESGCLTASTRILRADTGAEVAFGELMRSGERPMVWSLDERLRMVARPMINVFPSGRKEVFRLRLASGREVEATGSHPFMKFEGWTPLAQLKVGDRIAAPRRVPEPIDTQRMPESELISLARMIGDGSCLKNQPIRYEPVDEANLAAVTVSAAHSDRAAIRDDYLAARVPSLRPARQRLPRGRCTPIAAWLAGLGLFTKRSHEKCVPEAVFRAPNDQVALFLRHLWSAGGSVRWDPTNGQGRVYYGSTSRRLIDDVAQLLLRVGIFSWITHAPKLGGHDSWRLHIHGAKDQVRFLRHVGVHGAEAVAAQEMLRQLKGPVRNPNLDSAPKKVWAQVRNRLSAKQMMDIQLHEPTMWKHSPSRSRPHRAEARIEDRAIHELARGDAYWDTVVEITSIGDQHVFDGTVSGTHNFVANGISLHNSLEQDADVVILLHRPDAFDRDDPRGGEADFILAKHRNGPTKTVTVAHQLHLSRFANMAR
# Protein RecA = target: T4, Protein RecA (Mycobacterium tuberculosis, UniProt P9WHJ3); experiment: Fluorescence Cell-Free Homogeneous Dose Retest to Identify Inhibitors of RecA-Intein Splicing Activity. [Related pubchem assays (depositor defined):AID2097, AID2223, AID489010, AID492950]; assay type: functional
# T4 sequence (P9WHJ3 whole entry): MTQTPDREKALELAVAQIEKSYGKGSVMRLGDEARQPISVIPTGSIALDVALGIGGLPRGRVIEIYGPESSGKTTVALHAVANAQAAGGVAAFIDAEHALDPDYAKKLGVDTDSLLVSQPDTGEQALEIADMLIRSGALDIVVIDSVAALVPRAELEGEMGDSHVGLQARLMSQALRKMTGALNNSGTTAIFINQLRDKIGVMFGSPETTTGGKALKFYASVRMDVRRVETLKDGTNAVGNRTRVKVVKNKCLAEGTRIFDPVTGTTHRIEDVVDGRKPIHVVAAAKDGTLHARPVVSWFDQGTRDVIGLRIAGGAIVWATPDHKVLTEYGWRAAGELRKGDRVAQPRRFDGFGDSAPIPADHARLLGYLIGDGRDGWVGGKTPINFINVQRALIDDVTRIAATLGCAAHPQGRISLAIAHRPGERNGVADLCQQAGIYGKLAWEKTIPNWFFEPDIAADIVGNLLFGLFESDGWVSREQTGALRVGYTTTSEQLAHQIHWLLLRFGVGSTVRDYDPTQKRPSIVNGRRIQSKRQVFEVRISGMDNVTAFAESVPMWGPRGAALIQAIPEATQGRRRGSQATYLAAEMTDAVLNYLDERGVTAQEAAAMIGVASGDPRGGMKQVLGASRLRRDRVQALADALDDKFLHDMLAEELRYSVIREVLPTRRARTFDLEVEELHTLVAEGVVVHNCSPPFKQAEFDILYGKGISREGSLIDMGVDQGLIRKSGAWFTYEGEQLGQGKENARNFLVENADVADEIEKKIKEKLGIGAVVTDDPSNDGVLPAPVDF
# Chain of Cytochrome P450 3A4 (P08684 whole entry): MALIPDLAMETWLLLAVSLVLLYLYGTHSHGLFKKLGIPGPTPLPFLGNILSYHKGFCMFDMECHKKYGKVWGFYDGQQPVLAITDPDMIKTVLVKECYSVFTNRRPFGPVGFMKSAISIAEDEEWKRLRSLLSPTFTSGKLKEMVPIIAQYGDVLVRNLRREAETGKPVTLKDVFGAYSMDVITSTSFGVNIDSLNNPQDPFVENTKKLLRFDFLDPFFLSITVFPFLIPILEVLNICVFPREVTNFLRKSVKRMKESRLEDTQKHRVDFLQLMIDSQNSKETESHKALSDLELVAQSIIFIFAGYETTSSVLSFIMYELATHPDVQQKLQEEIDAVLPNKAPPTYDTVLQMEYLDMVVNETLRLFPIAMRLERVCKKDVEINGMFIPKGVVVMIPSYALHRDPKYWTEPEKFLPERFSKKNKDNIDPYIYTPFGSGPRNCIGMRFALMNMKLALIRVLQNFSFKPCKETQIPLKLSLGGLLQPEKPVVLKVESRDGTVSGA
smiles,measurement,setting,value
CC(=O)OC[C@@]1(O)C[C@]23CCC4c5ccoc5CC[C@@]4(C)C2CCC1C3 (stereo not given in full),AC50,Cytochrome P450 3A4,31.6 µM (inconclusive)
OCC1OC(C#Cc2ccccc2)C=CC1O (stereo not given),AC50,Cytochrome P450 3A4,3.16 µM (inconclusive) and 6.31 µM (inconclusive) (2×)
Cc1cccc(N2CCN(C(=O)CSCc3c(C)noc3C)CC2)c1C,AC50,[1],2.41 µM (active)
same,AC50,[2],36.3 µM (active)
same,EC50,[3],243 µM (active)
same,AC50,[4],3.48 µM (active)
Cc1ccc(C2C3CSCC=C3C(C#N)=C(N)C2(C#N)C#N)cc1 (stereo not given),EC50,[5],> 20 µM (not active)
same,EC50,[6],17.4 µM (active)
same,EC50,[7],> 38 µM (not active)
same,EC50,[8],> 160 µM (inactive)
O=C(/C=C/c1ccccc1)c1ccc(NC2=NCCCS2)cc1,IC50,[9],8.3 µM (active)
COc1ccc(OC)c(S(=O)(=O)n2nnc3cc(Cl)ccc32)c1,IC50,Leucine aminopeptidase,103 µM (active)
O=C(O)C1CC=CCC1C(=O)Nc1ccccc1 (stereo not given),IC50,Leucine aminopeptidase,29 µM (active)
COc1ccccc1C(=O)N=C(NC(=O)c1ccccc1OC)Nc1nc2ccccc2o1,EC50,[5],5.05 µM (active)
same,EC50,[10],1.38 µM (active)
same,EC50,[11],> 60 µM (not active)
same,EC50,[6],4.28 µM (active)
same,CC50,[12],14 µM (active)
CCCOC(=O)c1ccc(Oc2c(C)n[nH]c2-c2ccc(OCC)cc2O)cc1,EC50,[5],7.31 µM (active)
same,EC50,Streptococcus,> 150 µM (not active)
same,EC50,[6],11.9 µM (active)
same,EC50,[13],11.1 µM (active)
same,AC50,[14],3.66 µM (active)
COCCCNC(=O)/C(=C\c1cccn1C)NC(=O)c1cccs1,IC50,Prothrombin,> 50 µM (inconclusive)
O=C(c1cc2ccccc2[nH]1)N1CCOCC1,IC50,Prothrombin,> 50 µM (not active)
Cc1cc(C)n(S(=O)(=O)/C=C/c2ccccc2)n1,EC50,[5],9.65 µM (active)
same,EC50,[6],9.1 µM (active)
same,EC50,[3],12.1 µM (active)
CCCn1c(-c2ccc(F)cc2)nc2c(NCCCN(CC)CC)nc(C)nc21,AC50,Cytochrome P450 3A4,20 µM (inconclusive)
Cn1c(N)c(C(=O)COC(=O)c2cc(C3CC3)nc3ccccc23)c(=O)n(C)c1=O,AC50,Cytochrome P450 3A4,39.8 µM (inconclusive)
C=C(CCC(=O)c1ccccc1)C(=O)c1ccccc1,EC50,[15],9.9 µM (active)
same,CC50,[12],17.7 µM (active)
same,EC50,[3],15 µM (active)
same,IC50,Prothrombin,> 50 µM (not active)
same,EC50,[16],8.26 µM (active)
O=C(Nc1ccc(Cc2ccncc2)cc1)c1ccco1,IC50,Prothrombin,> 50 µM (not active)
O=C(NC1CCCCC1)C1CCN(c2nnnn2-c2ccccc2)CC1,IC50,Prothrombin,> 50 µM (not active)
COc1ccc(NC(=O)C(CC(=O)O)Cc2ccccc2)cc1 (stereo not given),IC50,Leucine aminopeptidase,28.1 µM (active)
Cc1cc(NS(=O)(=O)c2ccc(NC(=O)CSc3nnc(-c4ccco4)n3N)cc2)nc(C)n1,IC50,Prothrombin,> 50 µM (not active)
O=C1C=C(NCc2ccc(Cl)c(Cl)c2)CC1,EC50,[5],> 20 µM (not active)
same,EC50,[6],> 20 µM (not active)
CC(=O)N1CC=CC1(C)C(=O)NCC1CC1 (stereo not given),AC50,Cytochrome P450 3A4,31.6 µM (inconclusive)
Cc1ccc(C(=O)COC(=O)CNC(=O)c2ccc(N3C(=O)c4ccccc4C3=O)cc2)cc1C,IC50,[9],2.13 µM (not active)
Cc1ccc(-c2[nH]nc3c2C(c2ccsc2)C(C#N)=C(N)O3)cc1 (stereo not given),AC50,[17],3.26 µM (active)
same,IC50,Leucine aminopeptidase,11.3 µM (active)
same,EC50,Protein RecA,1.2 µM (active)
CCc1nnc(NS(=O)(=O)c2ccc(/N=C/c3c(C)[nH]n(-c4cccc(Cl)c4)c3=O)cc2)s1,IC50,Leucine aminopeptidase,11.3 µM (active)
O=C(CSc1nnc(O)nc1O)N/N=C/c1ccccc1,IC50,Leucine aminopeptidase,21.1 µM (active)
O=C(N/N=C/c1ccccc1[N+](=O)[O-])c1ccc2[nH]cnc2c1,IC50,Prothrombin,2.34 µM (active)
NC(=O)/N=N/C(N)=O [E927A],AC50,Cytochrome P450 3A4,31.6 µM (inconclusive)
